Here are results for 36 compounds from patent US8829034B2, “Compounds which modulate the CB2 receptor” (Boehringer Ingerlheim International GmbH, priority 2006, dated 2014).

The target of one experiment is T1, human CB2R (Homo sapiens, UniProt P34972).
T1 construct: host or cells: CHO cells
T1 sequence (P34972 whole entry): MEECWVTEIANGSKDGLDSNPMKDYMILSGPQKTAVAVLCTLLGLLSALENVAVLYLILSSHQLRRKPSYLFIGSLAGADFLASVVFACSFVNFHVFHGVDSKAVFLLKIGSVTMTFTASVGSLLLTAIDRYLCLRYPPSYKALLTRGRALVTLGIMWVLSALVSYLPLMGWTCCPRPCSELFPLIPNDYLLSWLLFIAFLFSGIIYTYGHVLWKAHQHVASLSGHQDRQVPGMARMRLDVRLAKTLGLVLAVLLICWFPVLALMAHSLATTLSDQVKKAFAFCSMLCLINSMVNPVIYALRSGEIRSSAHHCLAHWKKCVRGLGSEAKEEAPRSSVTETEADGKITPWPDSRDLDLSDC
As to the kind of experiment: CB2R mediated modulation of cAMP synthesis. The class given is cell-based.
Conditions: not given
The method, then: B. CB2R Mediated Modulation of cAMP Synthesis:
CHO cells expressing human CB2R (Euroscreen) were plated at a density of 5000 cells per well in 384 well plates and incubated overnight at 37° C. After removing the media, the cells were treated with test compounds diluted in stimulation buffer containing 1 mM IBMX, 0.25% BSA and 10 uM Forskolin. The assay was incubated for 30 minutes at 37° C. Cells were lysed and the cAMP concentration was measured using DiscoverX-XS cAMP kit, following the manufacturer's protocol. In this setting, agonists will decrease forskolin induced production of cAMP while inverse agonists will further increase forskolin induced production of cAMP. EC50 of agonists were calculated as follows. The maximal amount of cAMP produced by forskolin compared to the level of cAMP inhibited by 1 uM CP55940 is defined as 100%. The EC50 value of each test compound was determined as the concentration at which 50% of the forskolin-stimulated cAMP synthesis was inhibited. Data was analyzed using a four-parameter logistic model. (Model 205 of XLfit 4.0).
With `CC(C)(C(=O)Nc1nnc(-c2ccccc2)[nH]1)S(=O)(=O)C1CCCC1` [2-Cyclopentanesulfonyl-2-methyl-N-(5-phenyl-4H-1,2,4-triazol-3-yl)-propionamide], it took 3.8 nM to reach a half-maximal effect (EC50). This lies in the single-digit nanomolar range.
Consider `CC(C)CCS(=O)(=O)C(C)(C)C(=O)Nc1ccc(C(F)(F)F)cn1` [2-Methyl-2-(3-methyl-butane-1-sulfonyl)-N-(5-trifluoromethyl-pyridin-2-yl)-propionamide], for which it took 19.9 nM to reach a half-maximal effect (EC50).
The same measure, in the same setting: the value for `CC(C)(C(=O)Nc1ccc(C(F)(F)F)cn1)S(=O)(=O)C1CCOCC1` [2-Methyl-2-(tetrahydro-pyran-4-sulfonyl)-N-(5-trifluoromethyl-pyridin-2-yl)-propionamide] was 62.4 nM; that for `CC(C)(C(=O)Nc1ccc(C(F)(F)F)cn1)S(=O)(=O)CC1CCOCC1` [2-Methyl-2-(tetrahydro-pyran-4-ylmethanesulfonyl)-N-(5-trifluoromethyl-pyridin-2-yl)-propionamide] was 72.3 nM.

Staying with this experiment, now noted: found through the use of the above described assays.
Consider `Cn1nc(-c2ccccc2)cc1NC(=O)C(C)(C)S(=O)(=O)C1CCCC1` [2-Cyclopentanesulfonyl-2-methyl-N-(2-methyl-5-phenyl-2H-pyrazol-3-yl)-propionamide], for which the agonistic activity entry is recorded as “agonistic activity”.
Consider `CC(C)(C(=O)Nc1cc(C(F)(F)F)ccn1)S(=O)(=O)C1CCCC1` [2-Cyclopentanesulfonyl-2-methyl-N-(4-trifluoromethyl-pyridin-2-yl)-propionamide], for which the agonistic activity entry was “agonistic activity”.
Take `CC(C)(C(=O)Nc1nc(C(F)(F)F)cs1)S(=O)(=O)C1CCCC1` [2-Cyclopentanesulfonyl-2-methyl-N-(4-trifluoromethyl-thiazol-2-yl)-propionamide]: the agonistic activity result is listed as “agonistic activity”.
As for `CC(C)(C(=O)Nc1nnc(-c2ccccc2)[nH]1)S(=O)(=O)C1CCCC1` [2-Cyclopentanesulfonyl-2-methyl-N-(5-phenyl-4H-1,2,4-triazol-3-yl)-propionamide], the agonistic activity entry is reported as “agonistic activity”.
Still for that read-out and setting: the value for `CC(C)(C(=O)Nc1ccc(C(F)(F)F)cn1)S(=O)(=O)C1CCCC1` [2-Cyclopentanesulfonyl-2-methyl-N-(5-trifluoromethyl-pyridin-2-yl)-propionamide] was “agonistic activity”; that for `CC(C)(C(=O)Nc1ccc(C(F)(F)F)cn1)S(=O)(=O)CC1CC1` [2-Cyclopropylmethanesulfonyl-2-methyl-N-(5-trifluoromethyl-pyridin-2-yl)-propionamide] was “agonistic activity”; that for `CC(C)(C)S(=O)(=O)C(C)(C)C(=O)Nc1cc(C(F)(F)F)ccn1` [2-Methyl-2-(2-methyl-propane-2-sulfonyl)-N-(4-trifluoromethyl-pyridin-2-yl)-propionamide] was “agonistic activity”.
With `CC(C)(C)S(=O)(=O)C(C)(C)C(=O)Nc1cccc(C(F)(F)F)n1` [2-Methyl-2-(2-methyl-propane-2-sulfonyl)-N-(6-trifluoromethyl-pyridin-2-yl)-propionamide], the agonistic activity result is recorded as “agonistic activity”.
As for `CC(C)CCS(=O)(=O)C(C)(C)C(=O)Nc1ccc(C(F)(F)F)cn1` [2-Methyl-2-(3-methyl-butane-1-sulfonyl)-N-(5-trifluoromethyl-pyridin-2-yl)-propionamide], the agonistic activity result was “agonistic activity”.
Same read-out and setting: the value for `CC(C)(C(=O)Nc1ccc(C(F)(F)F)cn1)S(=O)(=O)CC1CCNCC1` [2-Methyl-2-(piperidin-4-ylmethanesulfonyl)-N-(5-trifluoromethyl-pyridin-2-yl)-propionamide] was “agonistic activity”; that for `CCCS(=O)(=O)C(C)(C)C(=O)Nc1nc2c(s1)CCCC2` [2-Methyl-2-(propane-1-sulfonyl)-N-(4,5,6,7-tetrahydro-benzothiazol-2-yl)-propionamide] was “agonistic activity”; that for `CCCS(=O)(=O)C(C)(C)C(=O)Nc1nc(-c2ccncc2)cs1` [2-Methyl-2-(propane-1-sulfonyl)-N-(4-pyridin-4-yl-thiazol-2-yl)-propionamide] was “agonistic activity”.
On to `CCCS(=O)(=O)C(C)(C)C(=O)Nc1cc(C(F)(F)F)ccn1` [2-Methyl-2-(propane-1-sulfonyl)-N-(4-trifluoromethyl-pyridin-2-yl)-propionamide], for which the agonistic activity entry is listed as “agonistic activity”.
Regarding `CCCS(=O)(=O)C(C)(C)C(=O)Nc1nc(C(F)(F)F)cs1` [2-Methyl-2-(propane-1-sulfonyl)-N-(4-trifluoromethyl-thiazol-2-yl)-propionamide], the agonistic activity result was “agonistic activity”.
On to `CCCS(=O)(=O)C(C)(C)C(=O)Nc1ccc(C(F)(F)F)cn1` [2-Methyl-2-(propane-1-sulfonyl)-N-(5-trifluoromethyl-pyridin-2-yl)-propionamide], for which the agonistic activity entry was “agonistic activity”.
In the case of `CCCS(=O)(=O)C(C)(C)C(=O)Nc1ccc2ccccc2n1` [2-Methyl-2-(propane-1-sulfonyl)-N-quinolin-2-yl-propionamide], the agonistic activity result was “agonistic activity”.
As for `CCCS(=O)(=O)C(C)(C)C(=O)Nc1cnc2ccccc2c1` [2-Methyl-2-(propane-1-sulfonyl)-N-quinolin-3-yl-propionamide], the agonistic activity entry is recorded as “agonistic activity”.
For the compound `CC(C)S(=O)(=O)C(C)(C)C(=O)Nc1nc2c(s1)CCCC2` [2-Methyl-2-(propane-2-sulfonyl)-N-(4,5,6,7-tetrahydro-benzothiazol-2-yl)-propionamide], the agonistic activity result was “agonistic activity”.
As for `CC(C)S(=O)(=O)C(C)(C)C(=O)Nc1nc(-c2ccccn2)cs1` [2-Methyl-2-(propane-2-sulfonyl)-N-(4-pyridin-2-yl-thiazol-2-yl)-propionamide], the agonistic activity result was “agonistic activity”.
Regarding `CC(C)S(=O)(=O)C(C)(C)C(=O)Nc1nc(-c2cccnc2)cs1` [2-Methyl-2-(propane-2-sulfonyl)-N-(4-pyridin-3-yl-thiazol-2-yl)-propionamide], the agonistic activity result is listed as “agonistic activity”.
Turning to `CC(C)S(=O)(=O)C(C)(C)C(=O)Nc1nc(-c2ccncc2)cs1` [2-Methyl-2-(propane-2-sulfonyl)-N-(4-pyridin-4-yl-thiazol-2-yl)-propionamide], the agonistic activity entry was “agonistic activity”.
In the case of `CC(C)S(=O)(=O)C(C)(C)C(=O)Nc1cccc(C(F)(F)F)n1` [2-Methyl-2-(propane-2-sulfonyl)-N-(6-trifluoromethyl-pyridin-2-yl)-propionamide], the agonistic activity result was “agonistic activity”.
As for `CC(C)S(=O)(=O)C(C)(C)C(=O)Nc1ccc2ccccc2n1` [2-Methyl-2-(propane-2-sulfonyl)-N-quinolin-2-yl-propionamide], the agonistic activity entry is listed as “agonistic activity”.
On the same count and under the same terms, the value for `CC(C)S(=O)(=O)C(C)(C)C(=O)Nc1cnc2ccccc2c1` [2-Methyl-2-(propane-2-sulfonyl)-N-quinolin-3-yl-propionamide] was “agonistic activity”.
Consider `CC(C)(C(=O)Nc1ccc(C(F)(F)F)cn1)S(=O)(=O)CC1CCCO1` (stereo not shown) [2-Methyl-2-(tetrahydro-furan-2-ylmethanesulfonyl)-N-(5-trifluoromethyl-pyridin-2-yl)-propionamide], for which the agonistic activity result is listed as “agonistic activity”.
Consider `CC(C)(C(=O)Nc1ccc(C(F)(F)F)cn1)S(=O)(=O)CC1CCCCO1` (stereo not shown) [2-Methyl-2-(tetrahydro-pyran-2-ylmethanesulfonyl)-N-(5-trifluoromethyl-pyridin-2-yl)-propionamide], for which the agonistic activity entry is recorded as “agonistic activity”.
Consider `CC(C)(C(=O)Nc1ccc(C(F)(F)F)cn1)S(=O)(=O)C1CCOCC1` [2-Methyl-2-(tetrahydro-pyran-4-sulfonyl)-N-(5-trifluoromethyl-pyridin-2-yl)-propionamide], for which the agonistic activity result is reported as “agonistic activity”.
On to `CC(C)(C(=O)Nc1cccc(C(F)(F)F)c1)S(=O)(=O)CC1CCOCC1` [2-Methyl-2-(tetrahydro-pyran-4-ylmethanesulfonyl)-N-(3-trifluoromethyl-phenyl)-propionamide], for which the agonistic activity result was “agonistic activity”.
For the compound `CC(C)(C(=O)Nc1ccc(C(F)(F)F)cc1)S(=O)(=O)CC1CCOCC1` [2-Methyl-2-(tetrahydro-pyran-4-ylmethanesulfonyl)-N-(4-trifluoromethyl-phenyl)-propionamide], the agonistic activity result is listed as “agonistic activity”.
On to `CC(C)(C(=O)Nc1cc(C(F)(F)F)ccn1)S(=O)(=O)CC1CCOCC1` [2-Methyl-2-(tetrahydro-pyran-4-ylmethanesulfonyl)-N-(4-trifluoromethyl-pyridin-2-yl)-propionamide], for which the agonistic activity entry is recorded as “agonistic activity”.
For `CC(C)(C(=O)Nc1nc(C(F)(F)F)cs1)S(=O)(=O)CC1CCOCC1` [2-Methyl-2-(tetrahydro-pyran-4-ylmethanesulfonyl)-N-(4-trifluoromethyl-thiazol-2-yl)-propionamide], the agonistic activity entry is given as “agonistic activity”.
Consider `CC(C)(C(=O)Nc1ccc(C(F)(F)F)cn1)S(=O)(=O)CC1CCOCC1` [2-Methyl-2-(tetrahydro-pyran-4-ylmethanesulfonyl)-N-(5-trifluoromethyl-pyridin-2-yl)-propionamide], for which the agonistic activity result is listed as “agonistic activity”.
With `CC(C)(C(=O)Nc1cccc(C(F)(F)F)n1)S(=O)(=O)CC1CCOCC1` [2-Methyl-2-(tetrahydro-pyran-4-ylmethanesulfonyl)-N-(6-trifluoromethyl-pyridin-2-yl)-propionamide], the agonistic activity result is “agonistic activity”.
For the compound `CCCS(=O)(=O)C(C)(C)C(=O)Nc1cc(-c2ccccc2)nn1C` [2-Methyl-N-(2-methyl-5-phenyl-2H-pyrazol-3-yl)-2-(propane-1-sulfonyl)-propionamide], the agonistic activity result is “agonistic activity”.
For the compound `CC(C)S(=O)(=O)C(C)(C)C(=O)Nc1cc(-c2ccccc2)nn1C` [2-Methyl-N-(2-methyl-5-phenyl-2H-pyrazol-3-yl)-2-(propane-2-sulfonyl)-propionamide], the agonistic activity result is “agonistic activity”.
On the same count and under the same terms, in the case of `Cn1nc(-c2ccccc2)cc1NC(=O)C(C)(C)S(=O)(=O)C1CCOCC1` [2-Methyl-N-(2-methyl-5-phenyl-2H-pyrazol-3-yl)-2-(tetrahydro-pyran-4-sulfonyl)-propionamide] it was “agonistic activity”.
